Laboratory results reported in patent US11046716B2, “Beta-lactamase inhibitors” (priority 2015, dated 2021).

Key:
[1] = tested on: K. pneumoniae expressing the Class A carbapenemase KPC-2; assay: Broth microdilution MIC assay with meropenem, K. pneumoniae KPC-2; format: cell-based; settings: Fixed Mero (meropenem) 4 μg/mL; K. p. 156319 KPC-3
Method in brief: (§1)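 In cation-adjusted Mueller Hinton broth, bacteria pre-grown 3-5 hours were exposed to test compound (2-fold, 16–0.125 μg/mL) plus a static 4 μg/ml β-lactam. A panel of control β-lactams was run alongside, and the compound MIC was judged by eye following 16-20 hours at 37° C.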

KPC-2 = molecular target: T1, KPC-2 (Klebsiella pneumoniae, UniProt Q9F663); assay: β-lactamase enzyme inhibition assay, KPC-2 (imipenem substrate); format: biochemical; settings: Class A; imipenem substrate, 300 nm; read-out: KPC-2
T1 construct: made in house; host or cells: E. coli BL21(DE3)
T1 sequence (Q9F663 25-293, looked up): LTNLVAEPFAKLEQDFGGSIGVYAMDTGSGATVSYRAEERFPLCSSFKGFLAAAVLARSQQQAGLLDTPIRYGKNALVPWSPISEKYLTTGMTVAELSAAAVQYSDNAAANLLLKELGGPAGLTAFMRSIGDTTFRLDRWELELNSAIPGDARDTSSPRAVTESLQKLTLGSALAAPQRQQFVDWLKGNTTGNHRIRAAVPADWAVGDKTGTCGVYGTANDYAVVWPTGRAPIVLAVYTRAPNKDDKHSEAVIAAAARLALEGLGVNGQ
Method in brief: (§2)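 Compounds are mixed with purified, untagged recombinant β-lactamase and held 15 min at 37 °C. Substrate is then added: nitrocefin (100 μM final) for OXA-1, imipenem for KPC-2, cefotaxime for SHV-5. Absorbance is followed immediately, and percent inhibition per concentration gives the IC50.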

VIM-2 = molecular target: T2, VIM-2 (Escherichia coli, UniProt Q5U7L7); assay: β-lactamase enzyme inhibition assay, VIM-2 (nitrocefin substrate); format: biochemical; settings: Class B; nitrocefin substrate, 486 nm; read-out: VIM-2
T2 construct: made in house; host or cells: E. coli BL21(DE3)
Method in brief: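 Metallo-β-lactamase VIM-2 activity was tracked spectrophotometrically at 486 nm with 100 μM nitrocefin over 10 min, following 15 min preincubation with compound at 37 °C; inhibition was calculated per concentration.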

AmpC = molecular target: T3, AmpC (Enterobacter cloacae, UniProt P05364); assay: β-lactamase enzyme inhibition assay, p99 AmpC (nitrocefin substrate); format: biochemical
T3 construct: made in house; host or cells: E. coli BL21(DE3)
T3 sequence (P05364 21-381): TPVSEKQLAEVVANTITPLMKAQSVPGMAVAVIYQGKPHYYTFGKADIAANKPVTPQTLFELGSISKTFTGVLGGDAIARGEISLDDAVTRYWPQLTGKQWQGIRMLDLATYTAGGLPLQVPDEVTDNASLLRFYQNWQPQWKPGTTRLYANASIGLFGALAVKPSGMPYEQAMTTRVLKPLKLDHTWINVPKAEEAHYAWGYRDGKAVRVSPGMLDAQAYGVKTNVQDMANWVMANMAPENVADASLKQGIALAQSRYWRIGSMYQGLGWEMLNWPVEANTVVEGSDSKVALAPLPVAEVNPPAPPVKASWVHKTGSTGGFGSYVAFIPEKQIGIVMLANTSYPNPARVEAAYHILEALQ
Method in brief: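 Compounds are mixed with purified, untagged recombinant β-lactamase and held 15 min at 37 °C. Substrate is then added. Absorbance is followed immediately, and percent inhibition per concentration gives the IC50.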

[2] = tested on: E. cloacae expressing the Class C P99; assay: Broth microdilution MIC assay with ceftazidime, E. cloacae P99; format: cell-based; settings: Fixed CAZ (ceftazidime) 4 μg/mL; E. cl. 144200 p99 AmpC
Method in brief: as §1

SHV-5 = molecular target: T4, SHV-5 (Klebsiella pneumoniae, UniProt P0A3M1); assay: β-lactamase enzyme inhibition assay, SHV-5 (cefotaxime substrate); format: biochemical
T4 construct: made in house; host or cells: E. coli BL21(DE3)
T4 sequence (P0A3M1 22-286): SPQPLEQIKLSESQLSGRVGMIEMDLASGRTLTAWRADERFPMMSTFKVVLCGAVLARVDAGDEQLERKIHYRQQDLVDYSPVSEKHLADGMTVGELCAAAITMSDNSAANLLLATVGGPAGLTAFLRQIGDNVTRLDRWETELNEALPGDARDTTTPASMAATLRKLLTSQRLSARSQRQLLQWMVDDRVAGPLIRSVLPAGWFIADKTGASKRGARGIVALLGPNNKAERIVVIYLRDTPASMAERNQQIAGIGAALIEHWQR
Method in brief: as §2

OXA-48 = OXA-48 (UniProt Q6XEC0); assay: β-lactamase enzyme inhibition assay, Class D oxacillinase; format: biochemical; settings: read-out: OXA-48
[3] = tested on: E. coli expressing the Class A Extended Spectrum Beta-Lactamase (ESBL) CTX-M-15; assay: Broth microdilution MIC assay with ceftazidime, E. coli CTX-M-15; format: cell-based; settings: Fixed CAZ (ceftazidime) 4 μg/mL; E. coli ESBL4 CTX-M-15
Method in brief: as §1

[4] = tested on: P. aeruginosa expressing the Class B carbapenemase VIM-2; assay: Broth microdilution MIC assay with meropenem, P. aeruginosa VIM-2; format: cell-based; settings: Fixed Mero (meropenem) 4 μg/mL; P. aerug. 2775 VIM-2
Method in brief: as §1

[5] = tested on: K. pneumoniae producing the Class D carbapenemase OXA-48; assay: Broth microdilution MIC assay with meropenem, K. pneumoniae OXA-48; format: cell-based; settings: Fixed Mero (meropenem) 4 μg/mL; K. p. 11978 OXA-48
Method in brief: as §1

[6] = tested on: K. pneumoniae expressing the class A carbapenemase KPC-2 and the class B carbapenemase VIM-4; assay: Broth microdilution MIC assay with meropenem, K. pneumoniae KPC-2 and VIM-4; format: cell-based; settings: Fixed Mero (meropenem) 4 μg/mL; K. p. A-1797 KPC-2 VIM-4
Method in brief: as §1

| SMILES | MIC (μg/mL) of Exemplary Compounds in presence of fixed β-lactams: K. p. 156319 KPC-3 [1] | IC50 (KPC-2) | IC50 (VIM-2) | IC50 (AmpC) | MIC (μg/mL) of Exemplary Compounds in presence of fixed β-lactams: E. cl. 144200 p99 AmpC [2] | IC50 (SHV-5) | IC50 (OXA-48) | MIC (μg/mL) of Exemplary Compounds in presence of fixed β-lactams: E. coli ESBL4 CTX-M-15 [3] | MIC (μg/mL) of Exemplary Compounds in presence of fixed β-lactams: P. aerug. 2775 VIM-2 [4] | MIC (μg/mL) of Exemplary Compounds in presence of fixed β-lactams: K. p. 11978 OXA-48 [5] | MIC (μg/mL) of Exemplary Compounds in presence of fixed β-lactams: K. p. A-1797 KPC-2 VIM-4 [6] |
| --- | --- | --- | --- | --- | --- | --- | --- | --- | --- | --- | --- |
| NC1CCN(C(=O)c2cn(CC(=O)N[C@H]3Cc4cccc(C(=O)O)c4OB3O)nn2)CC1 [Example 82, (R)-3-(2-(4-(4-aminopiperidine-1-carbonyl)-1H-1,2,3-triazol-1-yl)acetamido)-2-hydroxy-3,4-dihydro-2H-benzo[e][1,2]oxaborinine-8-carboxylic acid] | C (C represents an MIC of <1 μg/mL) | < 100 nM | 100 to 1000 nM | < 100 nM | C (C represents an MIC of <1 μg/mL) | < 100 nM | 100 to 1000 nM | C (C represents an MIC of <1 μg/mL) | C (C represents an MIC of <1 μg/mL) | C (C represents an MIC of <1 μg/mL) | B (B represents an MIC between 1 and 16 μg/mL inclusive) |
| O=C(Cn1cc(C(=O)NC2CCNCC2)nn1)N[C@H]1Cc2cccc(C(=O)O)c2OB1O [Example 83, (R)-2-hydroxy-3-(2-(4-(piperidin-4-ylcarbamoyl)-1H-1,2,3-triazol-1-yl)acetamido)-3,4-dihydro-2H-benzo[e][1,2]oxaborinine-8-carboxylic acid] | C (C represents an MIC of <1 μg/mL) | 100 to 1000 nM | < 100 nM | < 100 nM | C (C represents an MIC of <1 μg/mL) | 100 to 1000 nM | 100 to 1000 nM | C (C represents an MIC of <1 μg/mL) | C (C represents an MIC of <1 μg/mL) | B (B represents an MIC between 1 and 16 μg/mL inclusive) | B (B represents an MIC between 1 and 16 μg/mL inclusive) |
| O=C(Cn1cc(C(=O)N[C@@H]2CCNC2)nn1)N[C@H]1Cc2cccc(C(=O)O)c2OB1O [Example 84, (R)-2-hydroxy-3-(2-(4-(((R)-pyrrolidin-3-yl)carbamoyl)-1H-1,2,3-triazol-1-yl)acetamido)-3,4-dihydro-2H-benzo[e][1,2]oxaborinine-8-carboxylic acid] | B (B represents an MIC between 1 and 16 μg/mL inclusive) | < 100 nM | < 100 nM | < 100 nM | C (C represents an MIC of <1 μg/mL) | 100 to 1000 nM | 100 to 1000 nM | C (C represents an MIC of <1 μg/mL) | C (C represents an MIC of <1 μg/mL) | B (B represents an MIC between 1 and 16 μg/mL inclusive) | C (C represents an MIC of <1 μg/mL) |
| N[C@@H]1CCN(C(=O)c2cn(CC(=O)N[C@H]3Cc4cccc(C(=O)O)c4OB3O)nn2)C1 [Example 85, (R)-3-(2-(4-((R)-3-aminopyrrolidine-1-carbonyl)-1H-1,2,3-triazol-1-yl)acetamido)-2-hydroxy-3,4-dihydro-2H-benzo[e][1,2]oxaborinine-8-carboxylic acid] | C (C represents an MIC of <1 μg/mL) | 100 to 1000 nM | 100 to 1000 nM | < 100 nM | C (C represents an MIC of <1 μg/mL) | 100 to 1000 nM | 100 to 1000 nM | C (C represents an MIC of <1 μg/mL) | C (C represents an MIC of <1 μg/mL) | B (B represents an MIC between 1 and 16 μg/mL inclusive) | B (B represents an MIC between 1 and 16 μg/mL inclusive) |
| CC(C)(CN)CNC(=O)c1cn(CC(=O)N[C@H]2Cc3cccc(C(=O)O)c3OB2O)nn1 [Example 86, (R)-3-(2-(4-((3-amino-2,2-dimethylpropyl)carbamoyl)-1H-1,2,3-triazol-1-yl)acetamido)-2-hydroxy-3,4-dihydro-2H-benzo[e][1,2]oxaborinine-8-carboxylic acid] | C (C represents an MIC of <1 μg/mL) | < 100 nM | < 100 nM | 100 to 1000 nM | C (C represents an MIC of <1 μg/mL) | 100 to 1000 nM | 1000 to 10000 nM | C (C represents an MIC of <1 μg/mL) | C (C represents an MIC of <1 μg/mL) | B (B represents an MIC between 1 and 16 μg/mL inclusive) | C (C represents an MIC of <1 μg/mL) |
| CNCCNC(=O)c1cn(CC(=O)N[C@H]2Cc3cccc(C(=O)O)c3OB2O)nn1 [Example 87, (R)-2-hydroxy-3-(2-(4-((2-(methylamino)ethyl)carbamoyl)-1H-1,2,3-triazol-1-yl)acetamido)-3,4-dihydro-2H-benzo[e][1,2]oxaborinine-8-carboxylic acid] | C (C represents an MIC of <1 μg/mL) | < 100 nM | < 100 nM | < 100 nM | C (C represents an MIC of <1 μg/mL) | 100 to 1000 nM | 1000 to 10000 nM | C (C represents an MIC of <1 μg/mL) | C (C represents an MIC of <1 μg/mL) | B (B represents an MIC between 1 and 16 μg/mL inclusive) | C (C represents an MIC of <1 μg/mL) |
| O=C(Cn1cc(C(=O)NC2CNC2)nn1)N[C@H]1Cc2cccc(C(=O)O)c2OB1O [Example 88, (R)-3-(2-(4-(azetidin-3-ylcarbamoyl)-1H-1,2,3-triazol-1-yl)acetamido)-2-hydroxy-3,4-dihydro-2H-benzo[e][1,2]oxaborinine-8-carboxylic acid] | B (B represents an MIC between 1 and 16 μg/mL inclusive) | < 100 nM | < 100 nM | < 100 nM | C (C represents an MIC of <1 μg/mL) | 100 to 1000 nM | 1000 to 10000 nM | C (C represents an MIC of <1 μg/mL) | C (C represents an MIC of <1 μg/mL) | B (B represents an MIC between 1 and 16 μg/mL inclusive) | C (C represents an MIC of <1 μg/mL) |
| O=C(Cn1cc(C2CCNC2)nn1)N[C@H]1Cc2cccc(C(=O)O)c2OB1O (stereo partly drawn) [Example 89, (3R)-2-hydroxy-3-(2-(4-(pyrrolidin-3-yl)-1H-1,2,3-triazol-1-yl)acetamido)-3,4-dihydro-2H-benzo[e][1,2]oxaborinine-8-carboxylic acid] | C (C represents an MIC of <1 μg/mL) | 100 to 1000 nM | 100 to 1000 nM | < 100 nM | C (C represents an MIC of <1 μg/mL) | 100 to 1000 nM | 1000 to 10000 nM | C (C represents an MIC of <1 μg/mL) | C (C represents an MIC of <1 μg/mL) | B (B represents an MIC between 1 and 16 μg/mL inclusive) | B (B represents an MIC between 1 and 16 μg/mL inclusive) |
